Results taken from patent US20070142456A1, “Method for inhibiting cancer development by fatty acid synthase inhibitors” (FASgen, LLC, priority 2002, published 2007).

Assays:
[1] = tested on: fatty acid synthesis in NT5 cancer cells; assay: Inhibition of fatty acid synthesis: [14C]acetate incorporation into total lipids in NT5 cells; type: cell-based, mouse; settings: 4 h treatment, [14C]acetate during last 2 h, FIG. 1
Method: (See FIG. 1). 5×10^4 NT5 cells were plated in 24-well plates. Following overnight attachment, cells were treated with cerulenin and C75 diluted in DMSO at 5 mg/ml for 4 h, with control cells receiving vehicle alone. During the last 2 h of drug treatment, cells were treated with 1 μCi [^14C]acetate. Total lipids were then extracted and counted. Statistical analysis (i.e., two tailed t-tests) of the results are as follows: Control-C75 5 μg/ml, p=0.116; Control-C75 10 μg/ml, p=0.018; Control-Cerulenin 5 μg/ml, p=0.002; Control-Cerulenin 10 μg/ml, p=0.002.
NT cell lines are established from tumors that developed in transgenic mice (Reilly, R., Gottlieb, M., Ercolini, A., Machiels, J., Kane, C., Okoye, F., Muller, W., Dixon, K., and Jaffee, E., “HER-2neu Is a Tumor Rejection Target in Tolerized HER-2/neu Transgenic Mice,” Cancer Research, 60: 3569-3576, 2000; Reilly, R., Machiels, J., Emens, L., Ercolini, A., Okoye, F., Lei, R., Weintraub, D., and Jaffee, E., “The Collaboration of Both Humoral and Cellular HER-2/neu-targeted Immune Responses Is Required for the Complete Eradication of HER-2/neu-expressing Tumors,” Cancer Research, 61: 880-883, 2001), and provide an in vitro model for testing the FAS inhibitors C75 and cerulenin.

NT5 cancer cells = assay: Inhibition of NT5 cancer cell growth in vitro (crystal violet, O.D. 490 nm); type: cell-based, mouse; settings: 72 hours, FIG. 2
Method: (See FIG. 2). 1×10^4 cells were plated in 24-well plates. Following overnight attachment, cells were treated with C75 or cerulenin diluted in DMSO at 5 mg/ml, with control cells receiving vehicle alone. After 72 hours, cells were stained with crystal violet (0.2% in 10% methanol), solubilized in 1% SDS, and the O.D. measured at 490 nm. Two-tailed t-test: Control-C75 5 μg/ml, p=0.0003; Control-C75 10 μg/ml, p<0.0001; Control-Cerulenin 5 μg/ml, p<0.0001; Control-Cerulenin 10 μg/ml, p<0.0001.

[2] = tested on: NT5 cancer cell allografts; assay: Growth of NT5 cancer cell allografts in FVB/N mice; type: in vivo; settings: 30 mg/kg intraperitoneal every six days, FIG. 3
Method: (See FIG. 3). Fourteen animals received 0.1 ml packed cultured NT5 cells in the flank. When measurable tumors appeared, seven animals were treated with C75 (30 mg/kg in 0.1 ml RPMI, intraperitoneal injection) every six days and seven animals received vehicle control. Error bars in FIG. 3 represent standard error of the mean.

[3] = tested on: HER-2/neu breast cancer transgenic mice; assay: Inhibition of cancer development in HER-2/neu breast cancer transgenic mouse model; type: in vivo
Text: Derived from the FVB/N strain, neu-N transgenic mice express the non-transforming rat neu cDNA under the control of a mammary-specific promoter. As a consequence, the mice develop spontaneous mammary adenocarcinomas beginning at approximately 125 days, with nearly all of the mice harboring tumors by 300 days (Guy, C., Webster, M., Schaller, M., Parsons, T., Cardiff, R., and Muller, W., “Expression of the neu protooncogene in the mammary epithelium of transgenic mice induces metastatic disease,” Proc. Natl. Acad. Sci. USA, 89: 10578-10582, 1992). […] Although the activated neu model has the advantage of more rapid tumor development (Guy, C., Cardiff, R., and Muller, W., “Activated neu induces rapid tumor progression,” Journal of Biological Chemistry, 271: 7673-7678, 1996), this point mutation has not been identified in human breast cancer (Lofts, F. and Gullick, W., “C-erbB2 amplification and overexpression in human tumors,” Cancer Treat. Res., 61: 161-179, 1992). Thus, the HER-2/neu breast cancer transgenic mouse model more closely resembles human disease where neu is overexpressed, not mutated.
(See FIG. 4) Thirty HER-2/neu breast cancer transgenic mice were used for the study. Fifteen (15) mice received weekly doses of C75 (30 mg/kg in 0.1 ml RPMI) for three months beginning at 5 weeks of age and 15 mice received vehicle alone. Mice were observed daily and the first appearance of breast tumors were recorded. Two (2) mice in the controls and 6 in the treated group died during the study. […] Fifty-percent (50%) of the control mice developed tumors after approximately 200 days versus 300 days for the C75 treated animals. Moreover, three treated animals remained tumor free for nearly 18 months, the duration of their lives.

[4] = tested on: mammary glands of neu-N transgenic mice; assay: Mechanism of action: mammary gland whole mounts and immunohistochemistry in neu-N transgenic mice; type: in vivo, mouse; settings: 30 mg/kg ip weekly
Method: (§1) Fifteen 8-10 week old, neu-N transgenic mice were treated intraperitoneally (ip) with C75 at 30 mg/kg weekly, along with fifteen vehicle controls (RPMI). Three mice from the treatment and control groups were sacrificed by carbon dioxide asphyxiation at two-week intervals beginning at week two (two weeks after the first C75 treatment at 8-10 weeks of age). All animals were injected with 1 mg of BrdU two hours prior to sacrifice. Entire inguinal mammary glands were removed along with the intramammary lymph node that was grossly identifiable. Additionally, kidneys, liver and skin samples were collected from each animal. The […] from one side and the kidneys, liver and skin samples were fixed in neutral-buffered formalin, the other was fixed in Carnoy's fixative for whole-mount preparation. In addition, mammary glands from a non-transgenic age-matched FVB/N control mouse were removed for similar analysis at week 10 (age 18-20 weeks).
Following fixation in 10% neutral-buffered formalin for 24 hours, the mammary glands were embedded in paraffin. Six 4 micron slides were prepared from each tissue block, with the first slide stained with hematoxylin and eosin. The remaining unstained sections were utilized for immunohistochemical analysis of the preneoplastic lesions and surrounding breast tissue with the following antibodies: FAS, BrdU and p21/Waf-1 (Dako, Carpinteria, Calif.), Akt and Phospho-Akt (Cell Signaling Technology, Beverly, Mass.), and neu (Santa Cruz Biotechnology, Inc., Santa Cruz, Calif.) apoptosis (ApopTag Peroxidase In Situ Oligo Ligation Kit, Serologicals Corporation, Temecula, Calif.). Staining was assessed by counting the number of positive cells per 500 total cells in the ductal and lobular structures at 400×. Statistical analysis was performed using t-tests on Prism 3 software. The Carnoy's fixed tissue was stained with carmine red as described and whole-mounted on glass slides.

[5] = tested on: mammary glands of FVB/N mice; assay: Mammary gland development in non-transgenic FVB/N control mice treated with C75; type: in vivo; settings: FVB/N animals, FIG. 9
Method: as §1

[6] = 30 mg/kg weekly for three months beginning at 5 weeks of age
[7] = immunohistochemistry, versus controls and FVB/N mice
[8] = mammary tissue, versus controls and FVB/N mice

Row | SMILES | inhibition of fatty acid synthesis in NT5 cells [1] | growth of NT5 cancer cells (O.D. 490 nm) (NT5 cancer cells) | growth of NT5 tumor cell allografts [2] | time after which 50% of the mice developed tumors [3, 6] [days] | tumor development (log-rank analysis) [3, 6] | time three treated animals remained tumor free (duration of their lives) ([3]; 30 mg/kg weekly for three months, three of 15 treated animals) [months] | development of cancer ([3]; HER-2/neu transgenic mice, FIG. 4) | time three animals remained tumor free (duration of their lives) ([3]; as restated in the description) [years] | mice that died during the study ([3]; treated group of 15 mice, 30 mg/kg weekly, 2 died in controls) [mice] | tissue restriction of the effects (other normal duct structures in skin, liver or kidney) [4] | number of mammary duct structures, their thickness and number of budding epithelial structures ([4]; following 8-10 weeks of treatment, versus vehicle controls and FVB/N animals) | Akt expression [4, 7] | FAS expression [4, 7] | Phospho-Akt expression [4, 7] | neu expression [4, 7] | p21/Waf1 expression [4, 7] | DNA synthesis (BrdU) [4, 8] | apoptotic changes [4, 8] | morphological difference in mammary structures, C75 treated versus controls [5]
1 | C/C=C/C/C=C/CCC(=O)[C@H]1O[C@H]1C(N)=O [cerulenin, 2,3-epoxy-4-oxo-7,10-dodecadienoylamide, reference compound] | inhibit fatty acid synthesis in NT5 cells at levels similar to previous studies with human cell lines | significantly reduced the growth of the cancer cells |  |  |  |  |  |  |  |  |  |  |  |  |  |  |  |  | 
2 | C=C1C(=O)OC(CCCCCCCC)C1C(=O)O (stereo not drawn) [C75, tetrahydro-3-methylene-2-oxo-5-n-octyl-4-furancarboxylic acid] | inhibit fatty acid synthesis in NT5 cells at levels similar to previous studies with human cell lines | significantly reduced the growth of the cancer cells | significantly reduced the growth | ~300 | significantly delayed | ~18 | significantly inhibited the development of cancer | ~1.5 | 6 | restricted to the breast epithelial cells that overexpress neu | significant reduction | decreased | decreased | decreased | decreased | decreased | decreased | increased | no significant morphological difference
